Like-named read-outs stand apart in the source and are kept apart here.
System: M. mycetomatis genome strain MM55
Test: CLSI M38-A2 based in vitro susceptibility screening (XTT or resazurin), growth at fixed concentration
Type: cell-based, Madurella mycetomatis
Conditions: Madurella mycetomatis; for Percent fungal survival at 100 µM: read-out: Percentage survival at 100um, 100 uM A (second replicate column)
[1] = mean of three replicates, read-out: Percentage survival at 25um, 25 uM mean
[2] = replicate A, read-out: Percentage survival at 25um, 25 um A
[3] = replicate B, read-out: Percentage survival at 25um, 25 uM B
[4] = replicate C, read-out: Percentage survival at 25um, 25 uM C
[5] = first replicate column, read-out: Percentage survival at 100um, 100 uM A
[6] = mean of three replicates, read-out: Percentage survival at 100um, 100 uM mean
[7] = second replicate column, read-out: Percentage survival at 100um, 100 uM A
[8] = third replicate column, read-out: Percentage survival at 100um, 100 uM A
[9] = mean of replicates, read-out: Percentage survival at 25um, 25 uM mean
[10] = mean of replicates, read-out: Percentage survival at 100um, 100 uM mean
[11] = replicate 1, read-out: Percentage survival at 100um, 100 uM A
[12] = replicate 2, read-out: Percentage survival at 100um, 100 uM A
[13] = replicate 3, read-out: Percentage survival at 100um, 100 uM A
[14] = mean of three, M. mycetomatis MM55, read-out: Percentage survival at 25um, 25 uM mean
[15] = replicate A, M. mycetomatis MM55, read-out: Percentage survival at 25um, 25 um A
[16] = replicate B, M. mycetomatis MM55, read-out: Percentage survival at 25um, 25 uM B
[17] = replicate C, M. mycetomatis MM55, read-out: Percentage survival at 25um, 25 uM C
[18] = mean of three, M. mycetomatis MM55, read-out: Percentage survival at 100um, 100 uM mean
[19] = replicate 1, M. mycetomatis MM55, read-out: Percentage survival at 100um, 100 uM A (first replicate column)
[20] = replicate 2, M. mycetomatis MM55
[21] = replicate 3, M. mycetomatis MM55, read-out: Percentage survival at 100um, 100 uM A (third replicate column)

Row | SMILES | activity at 25 µM [1] [%] | activity at 25 µM [2] [%] | activity at 25 µM [3] [%] | activity at 25 µM [4] [%] | activity at 100 µM [6] [%] | activity at 25 µM [14] [%] | activity at 25 µM [15] [%] | activity at 25 µM [16] [%] | activity at 25 µM [17] [%] | activity at 100 µM [18] [%] | activity at 100 µM [19] [%] | Percent fungal survival at 100 µM [20] [%] | activity at 100 µM [21] [%] | further results
1 | N#Cc1cc([N+](=O)[O-])ccc1Oc1ccccc1Cl [MMV1580800] | 66.8 | 54.7 | 82.6 | 63.1 | 19.4 |  |  |  |  |  |  |  |  | activity at 100 µM [5]: 3.13%; activity at 100 µM [7]: 3.43%; activity at 100 µM [8]: 51.7%
2 | Cc1nc2ccc(Cl)cc2c(-c2ccccc2)c1CC(=O)O [MMV1580801] | 86.1 | 87.4 | 94.3 | 76.7 | 83.4 |  |  |  |  |  |  |  |  | activity at 100 µM [5]: 85.8%; activity at 100 µM [7]: 76.8%; activity at 100 µM [8]: 87.5%
3 | Nc1nc(NC2Cc3ccc(F)cc3C2)nc(N2CCCCC2)n1 (centres unmarked) [MMV1580839] |  | 58.8 | 53.9 | 9.06 |  |  |  |  |  |  |  |  |  | activity at 25 µM [9]: 40.6%; activity at 100 µM [10]: 1.55%; activity at 100 µM [11]: -0.246%; activity at 100 µM [12]: 0.453%; activity at 100 µM [13]: 4.45%
4 | O=C(Nc1ccc(Cl)c(C(F)(F)F)c1)C(CCCl)C(=O)Nc1ccc(Cl)c(C(F)(F)F)c1 [MMV1580840] |  |  |  |  |  | 56.9 | 58.8 | 55.1 | 56.9 | 36.8 | 0.352 | 58.3 | 51.8 | 
5 | O=S(=O)(NCB(O)O)c1cc2c(Cl)ccc(Cl)c2s1 [MMV1580841] |  | 79.1 | 74.7 | 54.3 |  |  |  |  |  |  |  |  |  | activity at 25 µM (mean, read-out: Percentage survival at 25um, 25 uM mean): 69.4%; activity at 100 µM (mean, read-out: Percentage survival at 100um, 100 uM mean): 70.2%; activity at 100 µM (replicate (first column), read-out: Percentage survival at 100um, 100 uM A): 88.2%; activity at 100 µM (replicate (second column), read-out: Percentage survival at 100um, 100 uM A): 69.4%; activity at 100 µM (replicate (third column), read-out: Percentage survival at 100um, 100 uM A): 53%
6 | Clc1cc2nc(C3CCNCC3)n(Cc3ccc(CNCCc4cnc[nH]4)cc3)c2cc1Cl [MMV1580842] |  |  |  |  |  | 86.1 | 92.3 | 94.9 | 71.1 | 66.3 | 60.7 | 74.3 | 64.1 | 
7 | C[Si]1(C)CCN(Cc2cc(-c3ccc(Cl)cc3)n(-c3ccc(Cl)cc3)n2)CC1 [MMV1580843] |  |  |  |  |  |  |  |  |  |  |  |  |  | activity at 25 µM (mean of replicates, MM55, read-out: Percentage survival at 25um, 25 uM mean): 67.7%; activity at 25 µM (replicate A, MM55, read-out: Percentage survival at 25um, 25 um A): 56.5%; activity at 25 µM (replicate B, MM55, read-out: Percentage survival at 25um, 25 uM B): 86.3%; activity at 25 µM (replicate C, MM55, read-out: Percentage survival at 25um, 25 uM C): 60.2%; activity at 100 µM (mean of replicates, MM55, read-out: Percentage survival at 100um, 100 uM mean): 57.4%; activity at 100 µM (replicate 1, MM55, read-out: Percentage survival at 100um, 100 uM A): 52%; activity at 100 µM (replicate 2, MM55, read-out: Percentage survival at 100um, 100 uM A): 70.7%; activity at 100 µM (replicate 3, MM55, read-out: Percentage survival at 100um, 100 uM A): 49.4%
8 | CCc1nc(N)nc(N)c1C#CC(C)c1cc(OC)cc(-c2ccncc2)c1 (centres unmarked) [MMV1580844] |  |  |  |  |  | 31.6 | 86.9 | 5.16 | 2.83 | -1.56 | -1.7 | -1.01 | -1.98 | 
9 | CC(=O)N[C@H](C)C(=O)N[C@H](Cc1ccccc1)C(=O)O [MMV1580845] | 87.9 | 86.4 | 86.8 | 90.5 | 86.9 |  |  |  |  |  |  |  |  | activity at 100 µM (replicate 1, read-out: Percentage survival at 100um, 100 uM A (first replicate column)): 88.3%; Percent fungal survival at 100 µM (replicate 2): 84.1%; activity at 100 µM (replicate 3, read-out: Percentage survival at 100um, 100 uM A (third replicate column)): 88.3%
10 | COc1ccc(SC(=O)N[C@H](CCC(=O)O)C(=O)O)cc1 [MMV1580846] |  | 78.8 | 91.4 | 84.8 |  |  |  |  |  |  |  |  |  | activity at 25 µM [9]: 85%; activity at 100 µM [10]: 45.7%; activity at 100 µM [11]: -2.83%; activity at 100 µM [12]: 55.8%; activity at 100 µM [13]: 84.3%

Source: publication PMC8815882, “Screening the pandemic response box identified benzimidazole carbamates, Olorofim and ravuconazole as promising drug candidates for the treatment of eumycetoma” (PLoS Neglected Tropical Diseases, 2022)
